Data reported in patent publication US20260092074A1, “Annelated Pyridines as Steroidogenesis Inhibitors, Preparation Method and Use Thereof” (Guangzhou Vinnocent Pharmaceutical Limited, priority 2022, published 2026).

Key:
[1] = biological target: T1, human CYP11B1 (Homo sapiens, UniProt P15538); experiment: Inhibition of hCYP11B1 in transfected V79 cells; format: cell-based; conditions: hamster V79 cells expressing human CYP11B1; substrate 11-deoxycortisol 200 nM
T1 construct: expressed in transfected cells
T1 sequence (P15538 25-503): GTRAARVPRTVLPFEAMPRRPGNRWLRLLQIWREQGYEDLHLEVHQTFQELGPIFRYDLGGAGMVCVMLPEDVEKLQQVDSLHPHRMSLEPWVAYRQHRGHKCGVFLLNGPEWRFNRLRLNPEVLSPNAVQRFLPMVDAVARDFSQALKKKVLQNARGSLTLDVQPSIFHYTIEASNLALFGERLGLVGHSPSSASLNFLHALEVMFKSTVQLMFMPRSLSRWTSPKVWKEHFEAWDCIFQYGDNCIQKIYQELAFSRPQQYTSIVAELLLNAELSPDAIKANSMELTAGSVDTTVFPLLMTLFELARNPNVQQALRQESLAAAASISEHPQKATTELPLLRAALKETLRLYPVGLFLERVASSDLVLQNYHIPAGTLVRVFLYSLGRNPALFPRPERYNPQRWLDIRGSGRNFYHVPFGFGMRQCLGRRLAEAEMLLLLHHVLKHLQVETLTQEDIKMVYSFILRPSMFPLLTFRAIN
Method in brief: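 Reactions started with 200 nM 11-deoxycortisol, ran for 30 min and were stopped with ethyl acetate, after a 2 h compound preincubation. The host was stably transfected V79 hamster cells carrying human CYP11B1 plus rat P450 reductase. Percent inhibition, from LC-MS/MS or HPLC (260 nm) quantitation of substrate and product, gave the IC50.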

[2] = biological target: T2, human CYP11B2 (Homo sapiens, UniProt P19099); experiment: Inhibition of hCYP11B2 in transfected V79 cells; format: cell-based; conditions: hamster V79 cells expressing human CYP11B2; substrate 11-deoxycorticosterone 200 nM
T2 construct: expressed in transfected cells
T2 sequence (P19099 25-503): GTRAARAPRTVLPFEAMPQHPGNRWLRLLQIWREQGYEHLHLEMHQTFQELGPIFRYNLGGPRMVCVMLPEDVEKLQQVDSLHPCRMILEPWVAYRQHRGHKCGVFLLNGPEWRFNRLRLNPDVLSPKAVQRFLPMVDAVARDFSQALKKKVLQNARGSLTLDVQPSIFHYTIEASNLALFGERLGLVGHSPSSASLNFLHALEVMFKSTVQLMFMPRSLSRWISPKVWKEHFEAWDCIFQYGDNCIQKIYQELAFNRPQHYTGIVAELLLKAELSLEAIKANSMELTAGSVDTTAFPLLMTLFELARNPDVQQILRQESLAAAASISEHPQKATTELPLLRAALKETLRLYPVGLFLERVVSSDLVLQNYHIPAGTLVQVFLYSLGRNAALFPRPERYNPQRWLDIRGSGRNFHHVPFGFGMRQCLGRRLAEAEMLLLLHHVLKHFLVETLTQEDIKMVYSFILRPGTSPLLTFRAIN
Method in brief: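 The substrate (200 nM, 30 min) was added after a 2 hour compound pre-incubation in lentivirus-transduced V79 cells stably expressing human CYP11B2 plus rat NADPH-P450 reductase.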

IC50 [1] [nM]	IC50 [2] [nM]	SMILES
41	0.5	Cn1ccc(S(=O)(=O)N2CCSc3c(-c4cc5cc(Cl)ccc5o4)cncc32)n1 [S56, 8-(5-Chlorobenzofuran-2-yl)-4-((1-methyl-1H-pyrazol-3-yl)sulfonyl)-3,4-dihydro-2H-pyrido[4,3-b][1,4]thiazine]
27	2	CC(=O)N1CCc2cc(S(=O)(=O)N3CCSc4c(-c5cc6cc(Cl)ccc6o5)cncc43)ccc21 [S58, 1-(5-((8-(5-Chlorobenzofuran-2-yl)-2,3-dihydro-4H-pyrido[4,3-b][1,4]thiazin-4-yl)sulfonyl)indolin-1-yl)ethan-1-one]
587	3.8	O=S(=O)(C1CC2(COC2)C1)N1CCSc2c(-c3cc4cc(Cl)ccc4o3)cncc21 [S66, 4-((2-Oxaspiro[3.3]heptan-6-yl)sulfonyl)-8-(5-chlorobenzofuran-2-yl)-3,4-dihydro-2H-pyrido[4,3-b][1,4]thiazine]
22	0.8	N#Cc1ccc(-c2cncc3c2SCCN3S(=O)(=O)C2CN(C(=O)c3ccc(F)cc3)C2)cc1 [S68, 4-(4-((1-(4-Fluorobenzoyl)azetidin-3-yl)sulfonyl)-3,4-dihydro-2H-pyrido[4,3-b][1,4]thiazin-8-yl)benzonitrile]
73	1.3	N#Cc1ccc(-c2cncc3c2SCCN3S(=O)(=O)C2CN(C(=O)c3cccc(F)c3)C2)cc1 [S69, 4-(4-((1-(3-Fluorobenzoyl)azetidin-3-yl)sulfonyl)-3,4-dihydro-2H-pyrido[4,3-b][1,4]thiazin-8-yl)benzonitrile]
49	1.4	N#Cc1ccc(C(=O)N2CC(S(=O)(=O)N3CCSc4c(-c5ccc(C#N)cc5)cncc43)C2)cc1 [S70, 4-(4-((1-(4-Cyanobenzoyl)azetidin-3-yl)sulfonyl)-3,4-dihydro-2H-pyrido[4,3-b][1,4]thiazin-8-yl)benzonitrile]
23	2.1	COc1ccc(C(=O)N2CC(S(=O)(=O)N3CCSc4c(-c5ccc(C#N)cc5)cncc43)C2)cc1 [S72, 4-(4-((1-(4-Methoxybenzoyl)azetidin-3-yl)sulfonyl)-3,4-dihydro-2H-pyrido[4,3-b][1,4]thiazin-8-yl)benzonitrile]
18	0.3	COc1cccc(C(=O)N2CC(S(=O)(=O)N3CCSc4c(-c5ccc(C#N)cc5)cncc43)C2)c1 [S73, 4-(4-((1-(3-Methoxybenzoyl)azetidin-3-yl)sulfonyl)-3,4-dihydro-2H-pyrido[4,3-b][1,4]thiazin-8-yl)benzonitrile]
12	0.7	N#Cc1ccc(-c2cncc3c2SCCN3S(=O)(=O)C2CN(S(=O)(=O)c3cccc(F)c3)C2)cc1 [S75, 4-(4-((1-((3-Fluorophenyl)sulfonyl)azetidin-3-yl)sulfonyl)-3,4-dihydro-2H-pyrido[4,3-b][1,4]thiazin-8-yl)benzonitrile]
32	0.8	N#Cc1ccc(-c2cncc3c2SCCN3S(=O)(=O)C2CN(S(=O)(=O)c3cccc(C#N)c3)C2)cc1 [S77, 3-((3-((8-(4-Cyanophenyl)-2,3-dihydro-4H-pyrido[4,3-b][1,4]thiazin-4-yl)sulfonyl)azetidin-1-yl)sulfonyl)benzonitrile]
18	0.6	N#Cc1ccc(CN2CC(S(=O)(=O)N3CCSc4c(-c5ccc(C#N)cc5)cncc43)C2)cc1 [S80, 4-(4-((1-(4-Cyanobenzyl)azetidin-3-yl)sulfonyl)-3,4-dihydro-2H-pyrido[4,3-b][1,4]thiazin-8-yl)benzonitrile]

Further lines, the molecule ahead of its results:

SMILES	IC50 [1] [nM]	IC50 [2] [nM]
CC(=O)Nc1nc(C)c(S(=O)(=O)N2CCSc3c(-c4cc5cc(Cl)ccc5o4)cncc32)s1 [S57, N-(5-((8-(5-Chlorobenzofuran-2-yl)-2,3-dihydro-4H-pyrido[4,3-b][1,4]thiazin-4-yl)sulfonyl)-4-methylthiazol-2-yl)acetamide]	66	3.9
O=C1COc2ccc(S(=O)(=O)N3CCSc4c(-c5cc6cc(Cl)ccc6o5)cncc43)cc2N1 [S59, 6-((8-(5-Chlorobenzofuran-2-yl)-2,3-dihydro-4H-pyrido[4,3-b][1,4]thiazin-4-yl)sulfonyl)-2H-benzo[b][1,4]oxazin-3 (4H)-one]	48	0.5
O=S(=O)(c1ccc(Cl)s1)N1CCSc2c(-c3cc4cc(Cl)ccc4o3)cncc21 [S60, 8-(5-Chlorobenzofuran-2-yl)-4-((5-chlorothiophen-2-yl)sulfonyl)-3,4-dihydro-2H-pyrido-[4,3-b][1,4]thiazine]	54	0.7
O=S(=O)(C1CCNCC1)N1CCSc2c(-c3cc4cc(Cl)ccc4o3)cncc21 [S61, 8-(5-Chlorobenzofuran-2-yl)-4-(piperidin-4-ylsulfonyl)-3,4-dihydro-2H-pyrido[4,3-b][1, 4]thiazine]	688	21.7
O=S(=O)(C1CNC1)N1CCSc2c(-c3cc4cc(Cl)ccc4o3)cncc21 [S62, 4-(Azetidin-3-ylsulfonyl)-8-(5-chlorobenzofuran-2-yl)-3,4-dihydro-2H-pyrido[4,3-b][1,4]thiazine]	516	7.2
N#CN1CCC(S(=O)(=O)N2CCSc3c(-c4cc5cc(Cl)ccc5o4)cncc32)CC1 [S63, 4-((8-(5-Chlorobenzofuran-2-yl)-2,3-dihydro-4H-pyrido[4,3-b][1,4]thiazin-4-yl)sulfonyl) piperidine-1-carbonitrile]	792	10
N#CN1CC(S(=O)(=O)N2CCSc3c(-c4cc5cc(Cl)ccc5o4)cncc32)C1 [S64, 3-((8-(5-Chlorobenzofuran-2-yl)-2,3-dihydro-4H-pyrido[4,3-b][1,4]thiazin-4-yl)sulfonyl) azetidine-1-carbonitrile]	755	4.5
N#CC12CC(S(=O)(=O)N3CCSc4c(-c5cc6cc(Cl)ccc6o5)cncc43)(C1)C2 [S65, 3-((8-(5-Chlorobenzofuran-2-yl)-2,3-dihydro-4H-pyrido[4,3-b][1,4]thiazin-4-yl)sulfonyl)bicyclo[1.1.1]pentane-1-carbonitrile]	783	5
N#CN1CC2(CC(S(=O)(=O)N3CCSc4c(-c5cc6cc(Cl)ccc6o5)cncc43)C2)C1 [S67, 6-((8-(5-chlorobenzofuran-2-yl)-2,3-dihydro-4H-pyrido[4,3-b][1,4]thiazin-4-yl)sulfonyl)-2-azaspiro[3.3]heptane-2-carbonitrile]	603	3.2
N#Cc1ccc(-c2cncc3c2SCCN3S(=O)(=O)C2CN(C(=O)c3cccc(C#N)c3)C2)cc1 [S71, 3-(3-((8-(4-Cyanophenyl)-2,3-dihydro-4H-pyrido[4,3-b][1,4]thiazin-4-yl)sulfonyl)azetidine-1-carbonyl)benzonitrile]	349	14
N#Cc1ccc(-c2cncc3c2SCCN3S(=O)(=O)C2CN(S(=O)(=O)c3ccc(F)cc3)C2)cc1 [S74, 4-(4-((1-((4-Fluorophenyl)sulfonyl)azetidin-3-yl)sulfonyl)-3,4-dihydro-2H-pyrido[4,3-b][1,4]thiazin-8-yl)benzonitrile]	22	1.7
N#Cc1ccc(-c2cncc3c2SCCN3S(=O)(=O)C2CN(S(=O)(=O)c3ccc(C#N)cc3)C2)cc1 [S76, 4-((3-((8-(4-Cyanophenyl)-2,3-dihydro-4H-pyrido[4,3-b][1,4]thiazin-4-yl)sulfonyl)azetidin-1-yl)sulfonyl)benzonitrile]	24	0.8
COc1ccc(S(=O)(=O)N2CC(S(=O)(=O)N3CCSc4c(-c5ccc(C#N)cc5)cncc43)C2)cc1 [S78, 4-(4-((1-((4-Methoxyphenyl)sulfonyl)azetidin-3-yl)sulfonyl)-3,4-dihydro-2H-pyrido[4,3-b][1,4]thiazin-8-yl)benzonitrile]	38	1.2
COc1cccc(S(=O)(=O)N2CC(S(=O)(=O)N3CCSc4c(-c5ccc(C#N)cc5)cncc43)C2)c1 [S79, 4-(4-((1-((3-Methoxyphenyl)sulfonyl)azetidin-3-yl)sulfonyl)-3,4-dihydro-2H-pyrido[4,3-b][1,4]thiazin-8-yl)benzonitrile]	16	0.8
